Results reported in ChEMBL document CHEMBL3244099, “Various 5-substituted and 2,5-disubstituted 1,3-dioxanes, a new class of analgesic agents” (1977).

Key:
Assay type in all cases: functional
[1] = organism: Mus musculus; test: animal or person
Description: Analgesic activity in sc dosed mouse assessed as inhibition of acetic acid-induced writhing after 15 to 30 mins

[2] = system: Rattus norvegicus; test: Analgesic activity in sc dosed rat assessed as dose required for 2 times increase in reaction time after 30 mins by tail jerk test relative to control
[3] = system: Rattus norvegicus; test: Analgesic activity in sc dosed rat assessed as dose required for 2 times increase in reaction time after 15 mins by tail jerk test relative to control
[4] = Mus musculus, sc, read-out: ED50

Structure (SMILES): CN1CC[C@]23c4c5ccc(O)c4O[C@H]2[C@@H](O)C=C[C@H]3[C@H]1C5.CN1CC[C@]23c4c5ccc(O)c4O[C@H]2[C@@H](O)C=C[C@H]3[C@H]1C5.O=S(=O)(O)O
- ED50 [1, 4]: 0.97 mg/kg

Structure (SMILES): COc1ccc2c3c1O[C@H]1[C@@H](O)C=C[C@H]4[C@@H](C2)N(C)CC[C@@]341.O=S(=O)(O)O
- ED [2]: 4.2 mg/kg
- ED50 [1, 4]: 6.7 mg/kg

Structure (SMILES): COc1cccc(C(C2COCOC2)N(C)C)c1.O=C(O)/C=C\C(=O)O (stereo not given)
- ED50 [1, 4]: > 50 mg/kg

Structure (SMILES): CN(C)C(c1cccc(Cl)c1)C1COCOC1.O=C(O)/C=C\C(=O)O (stereo not given)
- ED50 [1, 4]: > 50 mg/kg

Structure (SMILES): CN(C)C(c1ccc(Cl)cc1)C1COCOC1.Cl (stereo not given)
- ED50 [1, 4]: 32 mg/kg

Structure (SMILES): CN(C)C(c1ccc(Cl)cc1Cl)C1COCOC1.Cl (stereo not given)
- ED50 [1, 4]: > 50 mg/kg

Structure (SMILES): CN(C)C(c1ccc(F)cc1)C1COCOC1.Cl (stereo not given)
- ED50 [1, 4]: 30 mg/kg

Structure (SMILES): COc1ccc(C(C2COCOC2)N(C)C)cc1.Cl (stereo not given)
- ED50 [1, 4]: > 50 mg/kg

Structure (SMILES): Cc1ccccc1C(C1COCOC1)N(C)C.Cl (stereo not given)
- ED50 [1, 4]: 39 mg/kg

Structure (SMILES): Cc1cccc(C(C2COCOC2)N(C)C)c1.O=C(O)/C=C\C(=O)O (stereo not given)
- ED50 [1, 4]: > 50 mg/kg

Structure (SMILES): Cc1ccc(C(C2COCOC2)N(C)C)cc1.O=C(O)/C=C\C(=O)O (stereo not given)
- ED [3]: 7.9 mg/kg
- ED50 [1, 4]: 20 mg/kg

Structure (SMILES): CN(C)C(c1cccc(OCc2ccccc2)c1)C1COCOC1.Cl (stereo not given)
- ED50 [1, 4]: > 50 mg/kg

Structure (SMILES): CN(C)C(c1ccc(OCc2ccccc2)cc1)C1COCOC1.Cl (stereo not given)
- ED50 [1, 4]: > 50 mg/kg

Structure (SMILES): CN(C)C(c1ccccn1)C1COCOC1.O=C(O)/C=C\C(=O)O (stereo not given)
- ED50 [1, 4]: > 50 mg/kg

Structure (SMILES): CN(C)C(c1ccncc1)C1COCOC1.O=C(O)/C=C\C(=O)O (stereo not given)
- ED50 [1, 4]: > 50 mg/kg

Structure (SMILES): Cl.Clc1ccc(C(C2COCOC2)N2CCCCC2)cc1 (stereo not given)
- ED50 [1, 4]: 33 mg/kg

Structure (SMILES): CCN(CC)C(c1ccccc1)C1COCOC1.[O-][Cl+3]([O-])([O-])O (stereo not given)
- ED50 [1, 4]: > 50 mg/kg

Structure (SMILES): Cl.c1ccc(C(C2COCOC2)N2CCCC2)cc1 (stereo not given)
- ED50 [1, 4]: > 50 mg/kg

Structure (SMILES): Cl.c1ccc(C(C2COCOC2)N2CCOCC2)cc1 (stereo not given)
- ED50 [1, 4]: > 50 mg/kg

Structure (SMILES): CN(C)C(c1cccc(O)c1)C1COCOC1.Cl (stereo not given)
- ED50 [1, 4]: > 50 mg/kg

Structure (SMILES): CN(C)C(c1ccc(O)cc1)C1COCOC1.Cl (stereo not given)
- ED [3]: 12 mg/kg
- ED50 [1, 4]: 13 mg/kg

Structure (SMILES): CC(=O)Oc1ccc(C(C2COCOC2)N(C)C)cc1.Cl (stereo not given)
- ED [3]: 7.3 mg/kg
- ED50 [1, 4]: 11 mg/kg

Structure (SMILES): CNC(c1ccccc1)C1COCOC1.Cl (stereo not given)
- ED50 [1, 4]: 21 mg/kg

Structure (SMILES): C=CCN(C)C(c1ccccc1)C1COCOC1.Cl (stereo not given)
- ED50 [1, 4]: > 50 mg/kg

Structure (SMILES): Cl.NC(c1ccccc1)C1COCOC1 (stereo not given)
- ED50 [1, 4]: > 50 mg/kg

Structure (SMILES): CC1OCOCC1C(c1ccccc1)N(C)C.Cl (stereo not given)
- ED50 [1, 4]: 32 mg/kg

Structure (SMILES): CN(C)C(c1ccccc1)C1(C)COCOC1.Cl (stereo not given)
- ED50 [1, 4]: > 50 mg/kg

Structure (SMILES): CN(C)C(c1ccccc1Cl)C1COCOC1.Cl (stereo not given)
- ED50 [1, 4]: 48 mg/kg

Structure (SMILES): CN(C)C(c1cccnc1)C1COCOC1.Cl (racemic)
- ED [3]: 9.6 mg/kg
- ED50 [1]: 6.1 mg/kg

Structure (SMILES): CC1OCC(C(c2ccccc2)N(C)C)CO1 (racemic)
- ED [3]: 6.3 mg/kg
- ED50 [1, 4]: 3.9 mg/kg

Structure (SMILES): CCC1OCC(C(c2ccccc2)N(C)C)CO1 (racemic)
- ED50 [1, 4]: 19 mg/kg

Structure (SMILES): CC(C)C1OCC(C(c2ccccc2)N(C)C)CO1.Cl (racemic)
- ED50 [1, 4]: > 50 mg/kg

Structure (SMILES): CN(C)C(c1ccccc1)C1COC(C2CCCCC2)OC1.Cl (racemic)
- ED50 [1, 4]: > 50 mg/kg

Structure (SMILES): CN(C)C(c1ccccc1)C1COC(C2CCCC2)OC1 (racemic)
- ED50 [1, 4]: 45 mg/kg

Structure (SMILES): CCC1(c2ccccc2)OCC(C(c2ccccc2)N(C)C)CO1.O=C(O)/C=C\C(=O)O (racemic)
- ED50 [1, 4]: > 50 mg/kg

Structure (SMILES): Cc1ccc(C(C2COC(C)OC2)N(C)C)cc1.Cl (racemic)
- ED [3]: 7.9 mg/kg
- ED50 [1, 4]: 2.9 mg/kg

Structure (SMILES): CN(C)C(c1ccccc1)C1COCOC1.Cl (racemic)
- ED [3]: 4 mg/kg
- ED50 [1]: 14 mg/kg

Structure (SMILES): CN(C)C(c1ccccc1)C1COCOC1.Cl (stereo in doubt; (+)-4a)
- ED [3]: 69 mg/kg
- ED50 [1]: >50 mg/kg

Structure (SMILES): CN(C)C(c1cccnc1)C1COCOC1.Cl (stereo in doubt; (+)-4o)
- ED [3]: >80 mg/kg
- ED50 [1]: >50 mg/kg

Structure (SMILES): CN(C)C(c1ccccc1)C1COCOC1.Cl (stereo in doubt; (-)-4a)
- ED [3]: 2.4 mg/kg
- ED50 [1]: 6.2 mg/kg

Structure (SMILES): CN(C)C(c1cccnc1)C1COCOC1.Cl (stereo in doubt; (-)-4o)
- ED [3]: 5.7 mg/kg
- ED50 [1]: 3.6 mg/kg

Structure (SMILES): CCOC(=O)C1(c2ccccc2)CCN(C)CC1.Cl [MEPERIDINE HYDROCHLORIDE]
- ED [3]: 1.9 mg/kg
- ED50 [1, 4]: 2.9 mg/kg
